These results are taken from PMC10005185, “Structure-guided engineering of a receptor-agonist pair for inducible activation of the ABA adaptive response to drought” (Science Advances, 2023).

For one test, the target named is T1, ΔNHAB1 with AtPYL1 (Arabidopsis thaliana, UniProt Q8VZS8).
T1 construct: His; made in house
Description: PP2C inhibition assay, HAB1 with AtPYL1. The class given is biochemical. Conditions: read-out: inhibition of HAB1. The protocol: (§1) His-tagged receptors and phosphatases were purified using nickel–nitrilotriacetic acid (Ni-NTA) affinity chromatography. Protein integrity was analyzed by SDS–polyacrylamide gel electrophoresis, followed by InstantBlue staining. Phosphatase activity was measured using p-Nitrophenyl Phosphate (pNPP) (25 mM) as substrate, 10 mM MnCl2,1 μM PP2C, and 2 μM of the indicated receptors. Proteins were incubated with the ligands for 10 min at room temperature. pNPP was then added to start the reactions, and the absorbance at 405 nm was monitored for 20 min in a ViktorX5 plate reader. Assays were repeated twice. For dose-response experiments, IC50 values were obtained with GraphPad Prism 9 using a nonlinear regression curve fit. Each ligand concentration was tested in triplicate. Phosphatase activity of ABI1 was measured using RRA(phosphoT)VA peptide as a substrate, as described ([27]).

The next test concerns the target T2, HAB1 with PYL2 (Arabidopsis thaliana, UniProt O80992).
T2 construct: His; made in house
Description: PP2C inhibition assay, HAB1 with PYL2. It is filed as biochemical. The following applies: 1 μM iSB09, PYL2. The protocol: as §1

The test system of test [1] is Arabidopsis thaliana plants (WT Col-0, CsPYL1^5m lines). Description: Whole-plant gas exchange, stomatal conductance (Gs). The class given is in vivo. As for the experimental part: A. thaliana seeds were planted in specific gas exchange pots, where above- and below-ground parts can be separated by glass into 2:1 (v:v) peat:vermiculite mixture. The plants were grown in growth chambers (Snijders Scientific, Drogenbos, Belgium) at 12/12 photoperiod, 23/18°C temperature, 160 μmol m^−2 s^−1 light, and 70% relative humidity and were 23 to 28 days old during gas exchange experiments. Whole-rosette stomatal conductances were recorded with an eight-chamber custom-built temperature-controlled gas exchange device as described before ([72]). Plants were inserted into the measurement cuvettes and allowed to stabilize at standard conditions: ambient CO2, ~420 ppm; air temperature, 24° ± 0.5°C; light, 160 μmol m^−2 s^−1; relative air humidity, 66 ± 3%. For sprayings, plants were removed from gas exchange cuvettes, sprayed with respective solutions, and put back into the cuvettes for stomatal conductance recordings for 56 min. To check the long-term effect of compounds on plants, stomatal conductance measurements were performed about 24 and 48 hours after sprayings. In the meantime, plants were kept in growth chambers as described above. Photographs of plants were taken after the experiment, and leaf rosette area was calculated using ImageJ 1.37v [National Institutes of Health (NIH), USA]. Stomatal conductance for water vapor was calculated with a custom-written program as described ([72]).

The target in another test is AtPYL5:ΔNHAB1 (Arabidopsis thaliana, UniProt Q9FLB1). Description: Native red electrophoresis of ligand-induced ternary complex.
Sequence of AtPYL5:ΔNHAB1 (Q9FLB1 whole entry, stated change not applied): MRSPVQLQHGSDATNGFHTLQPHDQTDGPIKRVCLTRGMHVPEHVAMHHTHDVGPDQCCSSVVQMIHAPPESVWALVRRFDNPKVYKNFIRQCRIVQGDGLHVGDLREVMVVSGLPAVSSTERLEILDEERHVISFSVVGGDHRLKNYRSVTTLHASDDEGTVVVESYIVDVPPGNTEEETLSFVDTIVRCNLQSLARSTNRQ
Test [2] has as its system Arabidopsis thaliana seeds (WT Col-0, CsPYL1 and CsPYL1^5m lines). Description: Seed germination assay. It is filed as in vivo. Conditions: for IC50: Arabidopsis thaliana, read-out: Germination IC50. As for the experimental part:
For seed germination assays, seeds were stratified in the dark at 4°C for 3 days. Approximately 100 seeds of each genotype were sown on MS plates supplemented with six different ligand concentrations. The experiments were repeated three times. To score seed germination, radical emergence was analyzed at 24 hours after sowing.

Test [3] concerns RAB18/RD29B gene expression. Description: RT-qPCR of RAB18/RD29B expression. The following applies: in vivo. On the set-up: species or system Arabidopsis thaliana. The protocol: RNA was extracted from seedlings using NucleoSpin RNA Plant kit from Machery-Nagel, following the manufacturer’s instructions. Complementary DNA (cDNA) was synthesized from 1 μg of total purified RNA using 30 U of RevertAid Reverse Transcriptase (Thermo Fisher Scientific). Reverse transcription quantitative polymerase chain reaction (RT-qPCR) was performed using PyroTaq EvaGreen qPCR Master Mix 5X from Cultek, which includes EvaGreen Dye and carboxy-X-rhodamine (ROX) as a passive reference dye. The primer pairs used for this analysis were described previously ([42]). qPCR was performed in a QuantStudio 3 (Applied Biosystems). Relative quantification of gene expression data was carried out using the 2^−ΔΔCt or comparative Ct method. Expression levels were normalized using the Ct values obtained for the actin-8 gene. The presence of a single PCR product was further verified by dissociation analysis in all amplifications. The mean and SD of three independent experiments are shown.
Background: In qPCR the cycle at which signal appears reflects the starting amount.

The target in another test is T3, ABI1 with AtPYL1 (Arabidopsis thaliana, UniProt Q8VZS8).
T3 construct: His; made in house
T3 sequence (Q8VZS8 whole entry): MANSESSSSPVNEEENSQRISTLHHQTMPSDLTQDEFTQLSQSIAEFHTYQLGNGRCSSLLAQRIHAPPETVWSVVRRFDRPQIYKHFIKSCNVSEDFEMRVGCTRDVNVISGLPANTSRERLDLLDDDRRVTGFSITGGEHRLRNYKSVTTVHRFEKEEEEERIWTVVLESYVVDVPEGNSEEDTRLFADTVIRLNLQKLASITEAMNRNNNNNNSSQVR
T3 sequence (P49597 whole entry partner): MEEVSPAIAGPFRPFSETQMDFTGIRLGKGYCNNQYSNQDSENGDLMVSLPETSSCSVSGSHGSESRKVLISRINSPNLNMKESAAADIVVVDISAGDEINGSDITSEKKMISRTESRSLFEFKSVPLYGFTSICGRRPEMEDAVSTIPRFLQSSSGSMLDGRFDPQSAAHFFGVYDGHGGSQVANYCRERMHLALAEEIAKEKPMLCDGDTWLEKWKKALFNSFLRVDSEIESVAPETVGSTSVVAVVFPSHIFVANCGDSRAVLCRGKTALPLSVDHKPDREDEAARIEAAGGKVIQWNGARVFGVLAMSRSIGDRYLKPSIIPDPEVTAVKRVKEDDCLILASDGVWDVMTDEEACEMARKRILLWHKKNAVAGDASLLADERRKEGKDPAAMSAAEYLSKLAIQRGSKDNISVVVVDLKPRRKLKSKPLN
Description: PP2C inhibition assay, ABI1 with AtPYL1. It is filed as biochemical. Conditions: 1 µM phosphatase:2 µM receptor; read-out: IC50 of ABI1 with AtPYL1. The protocol: as §1, with “([27]). […]” for “([27]).”
(D) Dose response analysis of iSB09 or ABA-dependent inhibition of ABI1 (blue and black lines, respectively) in presence of either AtPYL1 or AtPYR1. Values (average of duplicates) show PP2C activity after incubation with the indicated concentration of ligand and receptor at 1:2 ratio (1 µM phosphatase:2 µM receptor). […]
whereas with AtPYR1 was 200 nM and 213 nM, for ABA and iSB09, respectively. Ligands were assayed

Test [4] deals with Arabidopsis thaliana plants. Description: IR thermography of leaf temperature, arabidopsis. It is filed as in vivo. The following applies: transgenic CsPYL1^5m lines and Col-0, 50 μM, 24 hours after spraying. The protocol:
A. thaliana plants were grown in a controlled environment growth chamber at 21°/19°C under 8-hour light/16-hour dark photoperiod at 100 μE m^−2 s^−1. IR thermography images of rosette leaves were acquired with a thermal camera FLIR E95 equipped with a 42° lens, 24 hours after spraying 6-week-old plants with 10 mM MES (pH 5.7) + 0.02% Silwet L-77 plus 50 μM ligand or 0.1% DMSO as a control. Images were processed and quantified with the FLIR tools software. The average temperature of 15 different sections taken from four to six leaves per plant was used for quantification. At least six plants per genotype were analyzed, and the experiments were repeated twice. Statistical analysis was performed using GraphPad Prism 9. T test or ANOVA analysis was carried out to identify statistical significance among datasets.

Where two headings read alike, the source gives them in different places. Bounds are passed on as bounds.

T2 sequence (O80992 whole entry): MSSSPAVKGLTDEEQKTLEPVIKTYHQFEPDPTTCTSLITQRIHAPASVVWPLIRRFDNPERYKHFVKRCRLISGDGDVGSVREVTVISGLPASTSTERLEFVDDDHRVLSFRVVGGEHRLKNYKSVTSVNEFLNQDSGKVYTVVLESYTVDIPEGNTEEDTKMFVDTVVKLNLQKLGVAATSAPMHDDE
T2 sequence (Q9CAJ0 179-511 partner limits assumed): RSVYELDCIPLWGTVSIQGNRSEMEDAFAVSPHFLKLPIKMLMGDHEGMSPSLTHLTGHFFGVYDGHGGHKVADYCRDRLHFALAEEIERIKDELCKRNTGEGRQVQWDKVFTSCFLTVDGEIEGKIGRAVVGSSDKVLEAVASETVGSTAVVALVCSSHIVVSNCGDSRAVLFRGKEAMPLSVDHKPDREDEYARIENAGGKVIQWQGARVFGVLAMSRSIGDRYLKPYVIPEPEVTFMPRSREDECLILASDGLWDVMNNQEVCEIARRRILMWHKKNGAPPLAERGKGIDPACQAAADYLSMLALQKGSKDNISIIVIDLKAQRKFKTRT
T1 sequence (Q8VZS8 whole entry, stated change not applied): as the sequence (Q8VZS8 whole entry) above
Description for AtPYL5:ΔNHAB1: Electrophoresis was performed at a constant current of 25 mA for 150 min at 4°C. Proteins were detected in gel by InstantBlue staining, and band quantification was performed using the ImageJ software. To obtain apparent Kd values, the proportion of ternary complex formed (fraction bound) and the ABA or iSB09 free concentration in each lane were calculated and plotted as represented in Fig. 3 (E and F). Then, the dose-response curves were fitted to the classical Hill equation using the GraphPad Prism software.

`CCn1c(=O)cc(C)c2cc(CNS(=O)(=O)c3ccccc3)ccc21` [iSB09]: the inhibition at 1 µM on ΔNHAB1 with AtPYL1 and on HAB1 with PYL2 was 60 to 70% in each case. For the same compound, the “effect on stomatal conductance (Gs)” value in test [1] (WT, spraying with 5 μM) is “nonsignificant”. The “reduction of stomatal conductance (Gs)” value in test [1] (WT, spraying with 20 μM) was “effective”. In test [1] (transgenic lines, 5 μM), the “duration of the effect on Gs” value is ≥ 48 h. The “reduction of Gs 24 and 48 hours after spraying” value in test [1] (transgenic lines, 5 μM) is given as “significantly evident”. This compound also had a Kd on AtPYL5:ΔNHAB1 of 1200 nM. Further, the IC50 is 4390 nM in test [2] (WT Col-0), 1360 nM in test [2] (line expressing CsPYL1), 290 nM in test [2] (line expressing CsPYL1^5m) and 226 nM at ABI1 with AtPYL1. For the same compound, in test [2] (plants expressing CsPYL1^5m), the “inhibition of seed germination, iSB09 relative to iSB07” value is “threefold more effective”. Moreover, the “RAB18/RD29B up-regulation in CsPYL1^5m plants relative to WT plants” value in test [3] was “markedly higher”. Besides, in test [4], the “leaf temperature by thermal imaging” value is on record as “increased leaf temperature”.

The inhibition is how much of the control response was suppressed. As usually defined, the Kd is a measure of binding affinity in units of concentration. Lower therefore signals tighter binding. The term IC50 denotes the midpoint of a concentration-inhibition curve.
